Source: patent US20070049585A1, “BENZAMIDE AND BENZOATE ANTI-HIV COMPOUNDS” (priority 2004, published 2007)
“Also recorded” adds a separate entry of the source. Like-named read-outs stand apart in the source and are kept apart here.

Experiments:
[1] = tested on: HIV-1 IIIB; experiment: AV-Finder-HIV Drug Discovery Assay: inhibition of HIV-1 IIIB replication in HeLa indicator cells (GFP fluorescence); format: cell-based
Text: In order to study the viral replication in vitro, the GenPhar (Mt. Pleasant, S.C.) AV-Finder™-HIV Drug Discovery Assay was used, that consists of two components: (1) a cloned, continuous-passage HeLa cell line containing an HIV-1 tat-activated molecular switch and a Green Fluorescent Protein reporter gene and (2) a recombinant adenovirus (rAd) vector containing the genes for all three of the HIV-1 receptor/co-receptors (CD4, CXCR4, and CCR5) to transduce into HeLa cells and convert them into highly susceptible HIV-1 indicator cells for use in the assay. The indicator cells over-express the HIV-1 receptor genes and are readily infected with any HIV-1 strain or isolate. […] Infected cells fluoresce brightly so that the inhibition of virus replication by potential antiviral drugs can be readily detected and quantified using standard laboratory plate reader technology.
(§1) Detector plates are set up at day 1 by adding HeLa cells (3000/well) to the adenovirus AD-3R in DMEM containing CCS in 96-well plates and to incubate at 37° C. under 95% humidity and 5% CO2 for 2 days. […] At day 4, the medium was replaced by fresh medium containing the corresponding concentration of the compounds of interest. The infectivity was assessed by measuring the fluorescence on each well at day 7 ([…]). […] At day 5, the medium was replaced by fresh medium containing the corresponding concentration of compounds of interest and the infectivity was assessed by measuring the fluorescence on each well at day 8. Results are expressed as percentage of inhibition of the viral replication.
Procaine HCl was used either alone dissolved in water (SP01) or in an Anticort-like formulation (SP01A) containing zinc sulfate heptahydrate and ascorbic acid at the ratio of about 27-107/1/1.3-2.0 (for example 200 mg procaine HCl with 7.5 mg of zinc sulfate heptahydrate and 12.5 mg of ascorbic acid; Xu, J. et al. J Pharmacol. Exper. Ther. 2003 307:1148-1157) (Samaritan Pharmaceuticals).

[2] = tested on: HIV MDR 769 strain; experiment: Inhibition of multi-drug resistant HIV MDR 769 strain replication in HeLa cells, without pre-medication; format: cell-based
Text: In order to study the viral replication in vitro, the GenPhar (Mt. Pleasant, S.C.) AV-Finder™-HIV Drug Discovery Assay was used, that consists of two components: (1) a cloned, continuous-passage HeLa cell line containing an HIV-1 tat-activated molecular switch and a Green Fluorescent Protein reporter gene and (2) a recombinant adenovirus (rAd) vector containing the genes for all three of the HIV-1 receptor/co-receptors (CD4, CXCR4, and CCR5) to transduce into HeLa cells and convert them into highly susceptible HIV-1 indicator cells for use in the assay. The indicator cells over-express the HIV-1 receptor genes and are readily infected with any HIV-1 strain or isolate. All HIV-1 strains tested thus far, regardless of co-receptor preference, and all subtypes or clades of HIV-1 will infect these indicator cells. Infected cells fluoresce brightly so that the inhibition of virus replication by potential antiviral drugs can be readily detected and quantified using standard laboratory plate reader technology.
as §1

[3] = tested on: HeLa cells; experiment: MTT cytotoxicity assay (mitochondrial integrity); format: cell-based, human
Method: Following the above described cell treatment protocol, the levels of cellular 3-(4,5-dimethylthiazol-2-yl)-2,5-diphenyl tetrazolium bromide (MTT) reduction, a measure of mitochondrial integrity, were determined in order to examine whether the compounds tested were cytotoxic.

Q: With Nc1ccn([C@@H]2CS[C@H](CO)O2)c(=O)n1 [3TC] as the compound, how does the “inhibition of viral replication reached (maximal)” value ([1]; no pre-medication, dose-dependent, maximal concentrations) read?
A: The value was 90%.

Q: Which results are given for Cc1cn([C@H]2C[C@H](N=[N+]=[N-])[C@@H](CO)O2)c(=O)[nH]c1=O [AZT]?
A: inhibition of the replication at the peak concentration ([1]; 24 hours pre-medication, 30 pM): < 30%; IC50 ([1]; 48 hours pretreatment): 0.03 µM; effect on HIV MDR 769 strain replication [2]: ineffective; also recorded: not effective; IC50 [3]: 161 µM

Q: For CCN(CC)CCOC(=O)c1ccc(N)cc1 [SP01, 4-aminobenzoic acid 2-(diethylamino)ethyl ester], which “inhibition of HIV replication” value ([1]; 48 hours pretreatment, all concentrations tested) is on record?
A: Its value is 75%.

Q: And the “efficacy in reducing HIV-1 IIIB replication compared with AZT, ddI or 3TC” value ([1]; human cells)?
A: The value was “efficacy higher than AZT, ddI or 3TC”.

Q: What about the “efficacy of inhibition of HIV-1 IIIB viral replication compared with 3TC” value ([1]; no pre-medication, concentrations up to 0.1 μM) of the same compound?
A: The value was “higher efficacy than the classical antiviral agent 3TC”.

Q: What about the “effect on HIV MDR 769 strain replication” value [2] of the same compound?
A: The value was “effectively blocked”.

Q: And the “effect on HIV MDR 769 strain replication” value ([2]; concentrations higher than 1 nM)?
A: Its value is “not effective”.

Q: What about the “inhibition of HIV MDR 769 viral replication” value ([2]; concentrations up to 1 nM) of the same compound?
A: The value was 75%.

Q: What about the “cell toxicity by MTT cytotoxicity assay” value ([3]; all concentrations tested, up to 100 μM) of the same compound?
A: The value was “devoid of cell toxicity”.

Q: For CCN(CC)CCNC(=O)c1ccc(N)cc1 [SP100, procainamide], which “effect on HIV MDR 769 strain replication” value [2] is on record?
A: The value was “effectively blocked”.

Q: Which results are given for O=c1[nH]cnc2c1ncn2[C@H]1CC[C@@H](CO)O1 [ddI]?
A: inhibition of viral replication (strongest inhibition) ([1]; no pre-medication, 0.01 μM): 26.37±26.11%; IC50 [3]: 89 µM
